Measurements taken from US20080255060A1, “Ester Linked Macrolides Useful For The Treatment of Microbial Infections” (priority 2004, published 2008).

How the values were obtained:
Experiment in all cases: MIC, standard microtiter broth serial dilution test
Format in all cases: cell-based
[1] = test system: S. pyogenes 0542; details: Streptococcus pyogenes
[2] = test system: erythromycin resistant strains of Streptococcus pyogenes
[3] = test system: E. faecalis ATCC 0004; details: Enterococcus faecalis, ATCC0004
[4] = test system: M. catarrhalis ATCC 0324; details: Moraxella catarrhalis, ATCC0324
[5] = test system: S. pneumoniae 0541; details: Streptococcus pneumoniae
[6] = test system: erythromycin resistant strains of Streptococcus pneumoniae
[7] = test system: S. aureus Smith ATCC 0329; details: Staphylococcus aureus, ATCC0329
[8] = test system: H. influenzae ATCC 0529; details: Haemophilus influenzae, ATCC0529

MIC [1] [µg/mL]	MIC [2] [µg/mL]	MIC [3] [µg/mL]	MIC [4] [µg/mL]	MIC [5] [µg/mL]	MIC [6] [µg/mL]	MIC [7] [µg/mL]	MIC [8] [µg/mL]	SMILES
≤ 1	≤ 0.25	≤ 1	≤ 2	≤ 1	≤ 0.25	≤ 1	≤ 2	CC[C@H]1OC(=O)[C@H](C)[C@@H](O[C@H]2C[C@@](C)(OC)[C@@H](OC(=O)CCNCCOCCOCCNc3cc4c(=O)c(C(=O)O)cn(C5CC5)c4cc3Cl)[C@H](C)O2)[C@H](C)[C@@H](O[C@@H]2O[C@H](C)C[C@H](N(C)C)[C@H]2O)[C@](C)(O)C[C@@H](C)CN(C)[C@H](C)[C@@H](O)[C@]1(C)O [Example 65, 4″-O-[3-(2-{2-[2-(3-Carboxy-7-chloro-1-cyclopropyl-4-oxo-1,4-dihydro-quinolin-6-ylamino)-ethoxy]-ethoxy}-ethylamino)-propionyl]-azithromycin]
≤ 1	≤ 0.25	≤ 1	≤ 2	≤ 1	≤ 0.25	≤ 1	≤ 2	CC[C@H]1OC(=O)[C@H](C)[C@@H](O[C@H]2C[C@@](C)(OC)[C@@H](OC(=O)CCOCCOCCNc3cc4c(=O)c(C(=O)O)cn(C(C)C)c4cc3Cl)[C@H](C)O2)[C@H](C)[C@@H](O[C@@H]2O[C@H](C)C[C@H](N(C)C)[C@H]2O)[C@](C)(O)C[C@@H](C)CN(C)[C@H](C)[C@@H](O)[C@]1(C)O [Example 31, 4″-O-(3-{2-[2-(3-carboxy-7-chloro-1-isopropyl-4-oxo-1,4-dihydro-quinoline-6-ylamino)-ethoxy]-ethoxy}-propionyl)-azithromycin]
≤ 1	≤ 0.25	≤ 1	≤ 2	≤ 1	≤ 0.25	≤ 1	≤ 2	CCO/N=C1\[C@H](C)C[C@@](C)(O)[C@H](O[C@@H]2O[C@H](C)C[C@H](N(C)C)[C@H]2O)[C@@H](C)[C@H](OC2C[C@@](C)(OC)[C@@H](OC(=O)CCOCCOCCNc3cc4c(=O)c(C(=O)O)cn(C5CC5)c4cc3Cl)[C@H](C)O2)[C@@H](C)C(=O)O[C@H](CC)[C@@](C)(O)[C@H](O)[C@H]1C (stereo partly drawn) [Example 19, 4″-O-(3-{2-[2-(3-Carboxy-7-chloro-1-cyclopropyl-4-oxo-1,4-dihydro-quinolin-6-ylamino)-ethoxy]-ethoxy}-propionyl)-9(E)-ethoxyimino-erythromycin A]
